From article PMC12396409, “Screening and hit evaluation of a microbial metabolite library against the pathogenic Plasmodium falciparum and Toxoplasma gondii parasites” (International Journal for Parasitology: Drugs and Drug …, 2025)
Where two headings read alike, the source gives them in different places.

Assays:
[1] = system: P. falciparum 3D7 parasites; assay: P. falciparum growth inhibition assay, 1-cycle (72 h treatment), SYBR DNA staining (library screen at 2 μg/mL and dose-response); assay type: cell-based, Plasmodium falciparum; settings: for activity at 2 µg/mL: Plasmodium falciparum, 3D7, parasite screen 2 μg/mL
[2] = system: P. falciparum 3D7 parasites; assay: P. falciparum growth inhibition assay, 2-cycle (120 h treatment), delayed-death screen and dose-response; assay type: cell-based, Plasmodium falciparum; settings: for activity at 2 µg/mL: Plasmodium falciparum, 3D7, parasite screen 2 μg/mL
[3] = system: T. gondii RH strain (RH-Tub-eYFP) tachyzoites; assay: microbe, parasite or virus in culture; assay type: cell-based, Toxoplasma gondii; settings: 72 h; for percent parasite growth at 2 µg/mL: Toxoplasma gondii, parasite screen 2 μg/mL
[4] = P. falciparum 3D7, 72 h, parasite screen at 2 μg/mL, % growth, replicate 1
[5] = P. falciparum 3D7, 72 h, parasite screen at 2 μg/mL, % growth, replicate 2
[6] = P. falciparum 3D7, 120 h, parasite screen at 2 μg/mL, % growth, replicate 1
[7] = P. falciparum 3D7, 120 h, parasite screen at 2 μg/mL, % growth, replicate 2
[8] = T. gondii, parasite screen at 2 μg/mL, % growth, replicate 1
[9] = T. gondii, parasite screen at 2 μg/mL, % growth, replicate 2
[10] = library screen at 2 μg/mL, 72 h, % growth, replicate 1
[11] = library screen at 2 μg/mL, 72 h, % growth, replicate 2
[12] = library screen at 2 μg/mL, 120 h, % growth, replicate 1
[13] = library screen at 2 μg/mL, 120 h, % growth, replicate 2
[14] = library screen at 2 μg/mL, % growth, replicate 1
[15] = library screen at 2 μg/mL, % growth, replicate 2
[16] = T. gondii, 2 μg/mL, values are growth (% of control)

COc1cccc2oc3c4c(cc(OC)c3c(=O)c12)O[C@H]1OC=C[C@@H]41 [BIA-M1214]
Pf_72h_%Growth_Rep1 [1, 4]: 80.14% | Pf_72h_%Growth_Rep2 [1, 5]: 43.63% | Pf_120h_%Growth_Rep1 [2, 6]: 94.17% | Pf_120h_%Growth_Rep2 [2, 7]: 84.03% | Tg_72h_%Growth_Rep1 [3, 8]: 111.85% | Tg_72h_%Growth_Rep2 [3, 9]: 93.41%

C[C@@H]1C[C@H]2O[C@@H]2/C=C\C=C\C(=O)Cc2c(Cl)c(O)cc(O)c2C(=O)O1 [Radicicol]
activity at 2 µg/mL ([1]; P. falciparum, 72 h, % growth, replicate 1, read-out: Pf_72h_%Growth_Rep1): 57.5% | activity at 2 µg/mL ([1]; P. falciparum, 72 h, % growth, replicate 2, read-out: Pf_72h_%Growth_Rep2): 42.5% | activity at 2 µg/mL ([2]; P. falciparum, 120 h, % growth, replicate 1, read-out: Pf_120h_%Growth_Rep1): 64.2% | activity at 2 µg/mL ([2]; P. falciparum, 120 h, % growth, replicate 2, read-out: Pf_120h_%Growth_Rep2): 55% | percent parasite growth at 2 µg/mL ([3]; T. gondii, % growth, replicate 1, read-out: Tg_72h_%Growth_Rep1): 52.9% | percent parasite growth at 2 µg/mL ([3]; T. gondii, % growth, replicate 2, read-out: Tg_72h_%Growth_Rep2): 57.6%

CC[C@H]1OC(=O)[C@H](C)[C@@H](O[C@H]2C[C@@](C)(O)[C@@H](O)[C@H](C)O2)[C@H](C)[C@@H](O[C@@H]2O[C@H](C)C[C@H](N(C)C)[C@H]2O)[C@](C)(O)C[C@@H](C)C(=O)[C@H](C)[C@@H](O)[C@]1(C)O [Erythromycin C]
Pf_72h_%Growth_Rep1 [1, 10]: 81.84% | Pf_72h_%Growth_Rep2 [1, 11]: 74.13% | Pf_120h_%Growth_Rep1 [2, 12]: 93.33% | Pf_120h_%Growth_Rep2 [2, 13]: 77.67% | Tg_72h_%Growth_Rep1 [3, 14]: 45.84% | Tg_72h_%Growth_Rep2 [3, 15]: 43.52%

CCCC(=O)O[C@H]1[C@H](C)O[C@@H](O[C@H]2[C@H](N(C)C)[C@@H](O)[C@H](O[C@H]3[C@@H](CC=O)C[C@@H](C)[C@@H](O)/C=C/C=C/C[C@@H](C)OC(=O)C[C@@H](OC(C)=O)[C@@H]3OC)O[C@@H]2C)C[C@@]1(C)O [Leucomycin A4]
1) Growth (%) at 72 h ([1]; P. falciparum, 2 μg/mL, 72 h): 46.88% | 2) Growth (%) at 120 h ([2]; P. falciparum, 2 μg/mL, 120 h): 1.51% | 3) Fold change (72 h/120 h) ([2]; P. falciparum, growth at 72 h / growth at 120 h, 2 μg/mL): 31.0 | Mean ([3]; T. gondii, 2 μg/mL, mean of both replicates, growth (% of control)): 23.43 | Replicate 1 [3, 16]: 19.43 | Replicate 2 [3, 16]: 27.43

COc1c(OC)c(-c2c[nH]c3ccccc23)c(OC)c(OC)c1-c1c[nH]c2ccccc12 [Asterriquinol D dimethylether]
Pf_72h_%Growth_Rep1 [1, 10]: 80.59% | Pf_72h_%Growth_Rep2 [1, 11]: 80.67% | Pf_120h_%Growth_Rep1 [2, 12]: 55.71% | Pf_120h_%Growth_Rep2 [2, 13]: 80.70% | Tg_72h_%Growth_Rep1 [3, 14]: 135.53% | Tg_72h_%Growth_Rep2 [3, 15]: 89.90%

CCCC1CC(C(=O)NC(C(C)O)C2OC(SC)C(O)C(O)C2O)N(C)C1 (stereo not drawn) [BIA-L1457]
Pf_72h_%Growth_Rep1 ([1]; P. falciparum 3D7, 72 h, library screen at 2 μg/mL, % growth, replicate 1): 49.27% | Pf_72h_%Growth_Rep2 ([1]; P. falciparum 3D7, 72 h, library screen at 2 μg/mL, % growth, replicate 2): 59.50% | Pf_120h_%Growth_Rep1 ([2]; P. falciparum 3D7, 120 h, library screen at 2 μg/mL, % growth, replicate 1): 9.59% | Pf_120h_%Growth_Rep2 ([2]; P. falciparum 3D7, 120 h, library screen at 2 μg/mL, % growth, replicate 2): 18.68% | Tg_72h_%Growth_Rep1 ([3]; T. gondii RH, library screen at 2 μg/mL, % growth, replicate 1): 26.67% | Tg_72h_%Growth_Rep2 ([3]; T. gondii RH, library screen at 2 μg/mL, % growth, replicate 2): 42.80%

Cc1cc(O)c(C)c(O)c1C(=O)O [BIA-M1661]
Pf_72h_%Growth_Rep1 [1, 4]: 76.46% | Pf_72h_%Growth_Rep2 [1, 5]: 83.29% | Pf_120h_%Growth_Rep1 [2, 6]: 67.73% | Pf_120h_%Growth_Rep2 [2, 7]: 68.25% | Tg_72h_%Growth_Rep1 [3, 8]: 153.94% | Tg_72h_%Growth_Rep2 [3, 9]: 85.55%

CC(C)=C[C@H]1C[C@H](C)[C@]2(CC[C@]3(C)C[C@@H]4C(C)=CC(=O)[C@H]4/C(C=O)=C\C[C@H]32)O1 [Anhydroepiophiobolin A]
Pf_72h_%Growth_Rep1 [1, 10]: 2.50% | Pf_72h_%Growth_Rep2 [1, 11]: 3.83% | Pf_120h_%Growth_Rep1 [2, 12]: -5.12% | Pf_120h_%Growth_Rep2 [2, 13]: 6.51% | Tg_72h_%Growth_Rep1 [3, 14]: 120.33% | Tg_72h_%Growth_Rep2 [3, 15]: 104.77%

Chaetomin
Pf_72h_%Growth_Rep1 ([1]; P. falciparum, 72 h, screen at 2 μg/mL, replicate 1): 58.72% | Pf_72h_%Growth_Rep2 ([1]; P. falciparum, 72 h, screen at 2 μg/mL, replicate 2): 55.68% | Pf_120h_%Growth_Rep1 ([2]; P. falciparum, 120 h, screen at 2 μg/mL, replicate 1): 45.75% | Pf_120h_%Growth_Rep2 ([2]; P. falciparum, 120 h, screen at 2 μg/mL, replicate 2): 45.66% | Tg_72h_%Growth_Rep1 ([3]; T. gondii, screen at 2 μg/mL, replicate 1): 114.47% | Tg_72h_%Growth_Rep2 ([3]; T. gondii, screen at 2 μg/mL, replicate 2): 90.87%
